Data on eleven compounds can be found in ChEMBL document CHEMBL1208766, “Synthesis of potent chemical inhibitors of dynamin GTPase” (Bioorg Med Chem Lett, 2010).

Calls of active or inactive are those of the source. The rule behind the calls is not given here.

One data set deals with T1, Dynamin-1 (Homo sapiens) (UniProt Q05193).
T1 sequence (whole entry): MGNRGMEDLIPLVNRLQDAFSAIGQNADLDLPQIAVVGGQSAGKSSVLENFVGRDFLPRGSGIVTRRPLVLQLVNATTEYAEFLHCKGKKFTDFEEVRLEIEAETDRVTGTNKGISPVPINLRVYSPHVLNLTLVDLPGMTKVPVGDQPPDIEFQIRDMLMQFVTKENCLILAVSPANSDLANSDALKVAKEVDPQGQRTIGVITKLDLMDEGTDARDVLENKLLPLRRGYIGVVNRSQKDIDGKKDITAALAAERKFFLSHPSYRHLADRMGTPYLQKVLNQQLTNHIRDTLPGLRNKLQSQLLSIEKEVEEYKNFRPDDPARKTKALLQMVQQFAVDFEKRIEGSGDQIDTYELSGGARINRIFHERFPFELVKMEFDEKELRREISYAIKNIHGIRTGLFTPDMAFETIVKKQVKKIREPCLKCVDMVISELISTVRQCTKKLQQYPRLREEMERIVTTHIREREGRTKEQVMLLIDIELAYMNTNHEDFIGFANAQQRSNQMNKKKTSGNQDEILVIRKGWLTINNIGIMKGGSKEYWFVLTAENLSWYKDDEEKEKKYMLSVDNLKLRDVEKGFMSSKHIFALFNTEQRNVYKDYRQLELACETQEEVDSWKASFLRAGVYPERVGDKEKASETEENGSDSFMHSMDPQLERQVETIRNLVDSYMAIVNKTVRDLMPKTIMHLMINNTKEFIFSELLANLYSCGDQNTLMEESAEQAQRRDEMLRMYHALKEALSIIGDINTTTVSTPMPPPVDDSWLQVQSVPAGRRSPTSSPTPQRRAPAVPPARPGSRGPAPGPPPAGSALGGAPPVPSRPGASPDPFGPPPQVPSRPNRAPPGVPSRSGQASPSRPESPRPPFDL
The data set can be described thus: (§1) Inhibition of GTPase activity of Dynamin 1. As to conditions: concentration not given here. Set-up: concentration or dose not given beside the values.

Data set [1] concerns COS-7. The data set can be described thus: Inhibition of transferrin uptake in african green monkey COS7 cells by microscopic TexasRed imaging. The class given is functional, cell-based. As to conditions: Chlorocebus aethiops.
Data set [2] relates to COS-7. Description: Inhibition of dynamin 1 mediated membrane fission in african green monkey Cos7 cells transfected with mRFP-LCa at 10 uM by total internal reflection fluorescence microscopy. The class given is cell-based. The settings on record: Chlorocebus aethiops.
For the next data set, the species on record is Homo sapiens. The data set can be described thus: Inhibition of GTPase activity of human mitochondrial Drp1 expressed in Escherichia coli BL-21.
The next data set addresses T2, Dynamin-1 (Homo sapiens, UniProt Q05193).
T2 sequence (Q05193 whole entry): T1 sequence (whole entry)
Described as §1.

In data set [3] the test system is COS-7. Description: Inhibition of transferrin uptake in african green monkey COS7 cells after 30 mins by microscopic TexasRed imaging. Format: functional, cell-based. The settings on record: Chlorocebus aethiops.
Data set [4] is described as follows: Cytotoxicity against african green monkey COS7 cells after 12 hrs. Format: cell-based. As to conditions: chlorocebus aethiops, cos-7, 12 h.
For data set [5], the system named is Cell division control protein 42 homolog. Description: Inhibition of GTPase activity of Cdc42.

A word on the inhibition: it is the percentage by which the read-out fell short of the control. On Dynamin-1 (Homo sapiens), `O=C(NCCc1ccc(O)cc1)c1ccc2ccccc2c1` registered an inhibition of 0%.
Consider `O=C(N/N=C/c1ccc(Cl)c(Cl)c1)c1ccc2ccccc2c1`, for which the inhibition at Dynamin-1 (Homo sapiens) was determined as 0%.
On Dynamin-1 (Homo sapiens), `Cc1ccc(/C=N/NC(=O)c2cc3ccccc3cc2O)cc1C` showed an inhibition of 0%.
Still for that read-out and setting: the figure for `O=C(N/N=C/c1cc(O)ccc1[N+](=O)[O-])c1cc2ccccc2cc1O` is 0%.
The IC50 is the concentration that inhibits the measured activity by half. As for `O=C(N/N=C/c1ccc(O)c(O)c1)c1cc2ccccc2cc1O` [DYNASORE], the results for the IC50 in the data set on COS-7 [1] and against Dynamin-1 were 15 µM and 10.8 µM, respectively. For the same compound, in the data set on COS-7 [2], the inhibition entry is “inactive”. Moreover, the inhibition entry in the data set listed under Homo sapiens was “Active”. The inhibition on Dynamin-1 (Homo sapiens) amounted to 69.8%.
For the compound `O=C(OP(=O)(N1CCOC1=O)N1CCOC1=O)c1ccc2ccccc2c1`, in the data set on COS-7 [1], the inhibition result is “Active”. The compound further yielded an inhibition against Dynamin-1 (Homo sapiens) of 0%.
On Dynamin-1 (Homo sapiens), `Cc1ccc(/C=N/NC(=O)c2ccc3ccccc3c2)cc1C` registered an inhibition of 0%.
On to `O=C(N/N=C/c1ccc(Cl)c(Cl)c1)c1cc2ccccc2cc1O`, for which, at Dynamin-1 (Homo sapiens), the inhibition amounted to 0%.
Still for that read-out and setting: the same measure for `NCCc1ccc(OC(=O)c2ccc3ccccc3c2)cc1`: 0%.
As for `COc1ccc(/C=N/NC(=O)c2cc3ccccc3cc2O)cc1O`, the IC50 was determined as 2.6 µM with COS-7 [1] and 3.6 µM at Dynamin-1. In addition, the inhibition entry in the data set with COS-7 [2] and in the data set filed under Homo sapiens was “Active” in each case. For the same compound, the inhibition entry (with COS-7 [3]; in data set [5]) was “inactive” in each case. Moreover, the Activity entry in data set [4] was “Non-toxic”. Moreover, the inhibition against Dynamin-1 (Homo sapiens) stood at 74.7%.
For `O=C(N/N=C/c1ccc(O)c(O)c1)c1ccc2ccccc2c1`, the values for the IC50 in the data set on COS-7 [1] and against Dynamin-1 were 4 µM and 5.1 µM, respectively. The inhibition entry in the data set on COS-7 [2] and in the data set listed under Homo sapiens was “Active” in each case. For the same compound, the inhibition result (in the data set on COS-7 [3]; in data set [5]) was “inactive” throughout. In addition, the Activity entry in data set [4] is “Non-toxic”. Further, the inhibition at Dynamin-1 (Homo sapiens) stood at 73.2%.
